Laboratory results taken from patent US8163779B2, “Glucokinase activators” (Takeda San Diego, Inc., priority 2006, dated 2012).

Target: T1, glucokinase (GK) (Homo sapiens, UniProt P35557)
T1 construct: I.D. No. 1 corresponds to residues 12-465 of glucokinase; made in house; host or cells: E. coli DH10b-T1r
T1 sequence (P35557 with tags, fused parts or gaps isoform P35557-2): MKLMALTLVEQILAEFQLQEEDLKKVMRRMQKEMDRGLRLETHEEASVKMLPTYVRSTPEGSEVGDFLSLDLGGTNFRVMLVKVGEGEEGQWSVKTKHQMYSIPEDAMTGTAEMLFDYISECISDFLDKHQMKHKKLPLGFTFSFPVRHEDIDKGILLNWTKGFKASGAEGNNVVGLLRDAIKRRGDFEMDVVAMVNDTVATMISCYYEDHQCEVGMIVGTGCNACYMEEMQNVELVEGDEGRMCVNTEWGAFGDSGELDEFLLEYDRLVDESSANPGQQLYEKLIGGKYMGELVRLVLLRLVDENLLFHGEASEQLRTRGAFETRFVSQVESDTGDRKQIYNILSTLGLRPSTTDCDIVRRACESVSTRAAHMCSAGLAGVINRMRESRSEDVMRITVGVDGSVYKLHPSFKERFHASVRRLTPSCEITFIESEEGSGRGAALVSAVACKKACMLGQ
Assay: enzymatic glucokinase activity assay (ATP consumption, KinaseGlo luminescence)
Format: biochemical
Settings: recombinant GK residues 12-465; 5 μM ATP, 5 mM Glucose; Kact = concentration that displays 50% of the maximal increase in GK activity; read-out: pKact
Method in brief: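 Recombinant human glucokinase expressed in E. coli was run in 25 mM Hepes pH 7.2 with 10 mM MgCl2, 1 mM DTT, 5 μM ATP, 5 mM glucose and 2% DMSO for 60 min at room temperature. Remaining ATP was read by KinaseGlo luminescence; pKact came from non-linear curve fits.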

SMILES | EC50 [µM]
COc1cccc(-c2cc(C)n([C@@H](CC3CCCCC3)C(=O)Nc3nccs3)c(=O)c2)c1 [Example 95, (S)-3-cyclohexyl-2-(4-(3-methoxyphenyl)-6-methyl-2-oxopyridin-1(2H)-yl)-N-(thiazol-2-yl)propanamide] | 1.58 to 15.8
COc1ccc(-c2cc(C)n([C@@H](CC3CCCCC3)C(=O)Nc3nccs3)c(=O)c2)cc1 [Example 96, (S)-3-cyclohexyl-2-(4-(4-methoxyphenyl)-6-methyl-2-oxopyridin-1(2H)-yl)-N-(thiazol-2-yl)propanamide] | > 15.8
Cc1cc(-c2cccc(C#N)c2)cc(=O)n1[C@@H](CC1CCCCC1)C(=O)Nc1nccs1 [Example 97, (S)-2-(4-(3-cyanophenyl)-6-methyl-2-oxopyridin-1(2H)-yl)-3-cyclohexyl-N-(thiazol-2-yl)propanamide] | > 15.8
Cc1cc(-c2ccc(C#N)cc2)cc(=O)n1[C@@H](CC1CCCCC1)C(=O)Nc1nccs1 [Example 98, (S)-2-(4-(4-cyanophenyl)-6-methyl-2-oxopyridin-1(2H)-yl)-3-cyclohexyl-N-(thiazol-2-yl)propanamide] | 1.58 to 15.8
Cc1cc(-c2ccoc2)cc(=O)n1[C@@H](CC1CCCCC1)C(=O)Nc1nccs1 [Example 99, (S)-3-cyclohexyl-2-(4-(furan-3-yl)-6-methyl-2-oxopyridin-1(2H)-yl)-N-(thiazol-2-yl)propanamide] | > 15.8
Cc1cc(-c2cccnc2)cc(=O)n1[C@@H](CC1CCCCC1)C(=O)Nc1nccs1 [Example 100, (S)-3-cyclohexyl-2-(6-methyl-2-oxo-4-(pyridin-3-yl)pyridin-1(2H)-yl)-N-(thiazol-2-yl)propanamide] | 1.58 to 15.8
CCS(=O)(=O)c1ccc(-c2cc(C)n([C@@H](CC3CCCCC3)C(=O)Nc3nccs3)c(=O)c2)cc1 [Example 102, (S)-3-cyclohexyl-2-(4-(4-(ethylsulfonyl)phenyl)-6-methyl-2-oxopyridin-1(2H)-yl)-N-(thiazol-2-yl)propanamide] | > 15.8
COc1ccc(Cl)cc1-c1cc(C)n([C@@H](CC2CCCCC2)C(=O)Nc2nccs2)c(=O)c1 [Example 103, (S)-2-(4-(5-chloro-2-methoxyphenyl)-6-methyl-2-oxopyridin-1(2H)-yl)-3-cyclohexyl-N-(thiazol-2-yl)propanamide] | > 15.8
Cc1cc(-c2cc3ccccc3o2)cc(=O)n1[C@@H](CC1CCCCC1)C(=O)Nc1nccs1 [Example 104, (S)-2-(4-(benzofuran-2-yl)-6-methyl-2-oxopyridin-1(2H)-yl)-3-cyclohexyl-N-(thiazol-2-yl)propanamide] | > 15.8
Cc1cc(-c2ccc(F)cc2)cc(=O)n1[C@@H](CC1CCCCC1)C(=O)Nc1nccs1 [Example 105, (S)-3-cyclohexyl-2-(4-(4-fluorophenyl)-6-methyl-2-oxopyridin-1(2H)-yl)-N-(thiazol-2-yl)propanamide] | > 15.8
Cc1cc(-c2csc3ccccc23)cc(=O)n1[C@@H](CC1CCCCC1)C(=O)Nc1nccs1 [Example 107, (S)-2-(4-(benzo[b]thiophen-3-yl)-6-methyl-2-oxopyridin-1(2H)-yl)-3-cyclohexyl-N-(thiazol-2-yl)propanamide] | > 15.8
Cc1cc(-c2cc3ccccc3s2)cc(=O)n1[C@@H](CC1CCCCC1)C(=O)Nc1nccs1 [Example 108, (S)-2-(4-(benzo[b]thiophen-2-yl)-6-methyl-2-oxopyridin-1(2H)-yl)-3-cyclohexyl-N-(thiazol-2-yl)propanamide] | > 15.8
Cc1cc(-c2cccc(F)c2)cc(=O)n1[C@@H](CC1CCCCC1)C(=O)Nc1nccs1 [Example 109, (S)-3-cyclohexyl-2-(4-(3-fluorophenyl)-6-methyl-2-oxopyridin-1(2H)-yl)-N-(thiazol-2-yl)propanamide] | > 15.8
Cc1cc(-c2ccccc2F)cc(=O)n1[C@@H](CC1CCCCC1)C(=O)Nc1nccs1 [Example 110, (S)-3-cyclohexyl-2-(4-(2-fluorophenyl)-6-methyl-2-oxopyridin-1(2H)-yl)-N-(thiazol-2-yl)propanamide] | > 15.8
Cc1csc(-c2cc(C)n([C@@H](CC3CCCCC3)C(=O)Nc3nccs3)c(=O)c2)c1 [Example 111, (S)-3-cyclohexyl-2-(6-methyl-4-(4-methylthiophen-2-yl)-2-oxopyridin-1(2H)-yl)-N-(thiazol-2-yl)propanamide] | > 15.8
Cc1cc(-c2cccc(NS(C)(=O)=O)c2)cc(=O)n1[C@@H](CC1CCCCC1)C(=O)Nc1nccs1 [Example 112, (S)-3-cyclohexyl-2-(6-methyl-4-(3-(methylsulfonamido)phenyl)-2-oxopyridin-1(2H)-yl)-N-(thiazol-2-yl)propanamide] | > 15.8
Cc1cc(-c2cn[nH]c2)cc(=O)n1[C@@H](CC1CCCCC1)C(=O)Nc1nccs1 [Example 113, (S)-3-cyclohexyl-2-(6-methyl-2-oxo-4-(1H-pyrazol-4-yl)pyridin-1(2H)-yl)-N-(thiazol-2-yl)propanamide] | > 15.8

Next, values leading:

EC50 [µM] | SMILES
> 15.8 | Cc1cc(-c2ccc(S(C)(=O)=O)cc2)cc(=O)n1[C@@H](CC1CCCCC1)C(=O)Nc1nccs1 [Example 101, (S)-3-cyclohexyl-2-(6-methyl-4-(4-(methylsulfonyl)phenyl)-2-oxopyridin-1(2H)-yl)-N-(thiazol-2-yl)propanamide]
> 15.8 | Cc1cc(-c2ccc(F)c(Cl)c2)cc(=O)n1[C@@H](CC1CCCCC1)C(=O)Nc1nccs1 [Example 106, (S)-2-(4-(3-chloro-4-fluorophenyl)-6-methyl-2-oxopyridin-1(2H)-yl)-3-cyclohexyl-N-(thiazol-2-yl)propanamide]
1.58 to 15.8 | CNS(=O)(=O)c1cccc(-c2cc(C)n([C@@H](CC3CCCCC3)C(=O)Nc3nccs3)c(=O)c2)c1 [Example 114, (S)-3-cyclohexyl-2-(6-methyl-4-(3-(N-methylsulfamoyl)phenyl)-2-oxopyridin-1(2H)-yl)-N-(thiazol-2-yl)propanamide]
> 15.8 | CNS(=O)(=O)c1ccc(-c2cc(C)n([C@@H](CC3CCCCC3)C(=O)Nc3nccs3)c(=O)c2)cc1 [Example 115, (S)-3-cyclohexyl-2-(6-methyl-4-(4-(N-methylsulfamoyl)phenyl)-2-oxopyridin-1(2H)-yl)-N-(thiazol-2-yl)propanamide]
> 15.8 | CC(C)(O)c1cnc(NC(=O)C(CC2CCOCC2)n2ccc(S(=O)(=O)C3CC3)cc2=O)s1 (stereo not drawn) [Example 117, 2-(4-(cyclopropylsulfonyl)-2-oxopyridin-1(2H)-yl)-N-(5-(2-hydroxypropan-2-yl)thiazol-2-yl)-3-(tetrahydro-2H-pyran-4-yl)propanamide]
< 1.58 | Cc1c(S(=O)(=O)C2CCCC2)c(C)c(=O)n(C(CC2CCOCC2)C(=O)Nc2ncc(Cl)s2)c1C (stereo not drawn) [Example 118, N-(5-chlorothiazol-2-yl)-2-(4-(cyclopentylsulfonyl)-3,5,6-trimethyl-2-oxopyridin-1(2H)-yl)-3-(tetrahydro-2H-pyran-4-yl)propanamide]
1.58 to 15.8 | Cc1cc(S(=O)(=O)c2cc(Cl)sc2Cl)cc(=O)n1C(CC1CCOCC1)C(=O)Nc1ncc(Cl)s1 (stereo not drawn) [Example 119, N-(5-chlorothiazol-2-yl)-2-(4-(2,5-dichlorothiophen-3-ylsulfonyl)-6-methyl-2-oxopyridin-1(2H)-yl)-3-(tetrahydro-2H-pyran-4-yl)propanamide]
